{"source": "patent US11000601B2", "about": "“Conjugated biological molecules, pharmaceutical compositions and methods” (OBI Pharma, Inc., priority 2016, dated 2021)", "key": {"[1]": {"assay": "Body weight in male BALB/c nude mice bearing HPAC established tumors", "settings": "QW x 4, MMAE 0.191 mg/kg IP; for Body Weight (g), Mean: group mean; for Body Weight (g), Mean / Body Weight: ADC (OBI-999) and OBI-888 10 mg/kg IV; for Body Weight: individual animals", "description": "Male nu/nu nude, aged 6-8 weeks, were obtained from Shanghai Lingchang and used. The mice were kept in individual ventilation cages at constant temperature and humidity with four animals in each cage (temperature: 20-26° C. and humidity: 40-70%). The cages were made of polycarbonate and the size was 300 mm×200 mm×180 mm. The bedding material was corn cob, which was changed twice per week. Animals had free access to irradiation sterilized dry granule food and drinking water during the entire study period. The identification labels for each cage contained the following information: number of animals, sex, strain, date received, treatment, study number, group number and the starting date of the treatment."}, "[2]": {"assay": "Body weight, mortality and signs of overt toxicity in NCI-H526 implanted female nu/nu mice", "format": "in vivo, mouse", "settings": "for Body Weight (g), Mean: group mean; for Body Weight (g), individual animal No. 1-8: single mice; for Body Weight / Body Weight (g): individual mice, 0.191 mg/kg", "protocol": "In a xenograft tumor model of human small cell lung cancer, viable NCI-H526 stage E carcinoma; variant small cell lung cancer cells (ATCC CRL-5811), were subcutaneously (SC) implanted (1×10^6 cells with matrigel (1:0.8) in 0.2 mL/mouse) into the right flank of female nu/nu mice. Tumor implanted mice were divided into five treatment groups, each group containing eight animals, and test agent administrations were initiated one day after cell implantation (denoted as Day 1).\nFemale nu/nu nude, aged 6-7 weeks, were obtained from BioLasco Taiwan (under Charles River Laboratories Licensee) and used. The animals were housed in individually ventilated cages (IVC, 36 Mini Isolator system). The allocation for 5 animals was 27×20×14 in cm. All animals were maintained in a hygienic environment under controlled temperature (20-24° C.) and humidity (30-70%) with 12-hour light/dark cycle. Free access to standard lab diet [MFG (Oriental Yeast Co., Ltd., Japan)] and autoclaved tap water were granted. All aspects of this work including housing, experimentation, and animal disposal were performed in general accordance with the “Guide for the Care and Use of Laboratory Animals: Eighth Edition” (National Academies Press, Washington, D.C., 2011) in our AAALAC-accredited laboratory animal facility. In addition, the animal care and use protocol was reviewed and approved by the IACUC at Eurofins Panlabs Taiwan, Ltd.\nThe tumor volumes, body weights, mortality, and signs of overt toxicity were monitored and recorded twice weekly for 45 days. Tumor growth inhibition was calculated as T/C (treatment/control)×100%. A T/C value≤42% compared to that of the vehicle control group was considered significant anti-tumor activity. Two-way ANOVA followed by Bonferroni test was used to ascertain the statistically significant significance of groups compared to respective vehicle control (*p<0.05)."}, "[3]": {"settings": "Day 1, NCI-H526 xenograft, female nu/nu mice, OBI-999/OBI-888 10 mg/kg IV, MMAE 0.191 mg/kg IP, once weekly x 4"}, "[4]": {"settings": "Day 4, NCI-H526 xenograft, female nu/nu mice, OBI-999/OBI-888 10 mg/kg IV, MMAE 0.191 mg/kg IP, once weekly x 4"}, "[5]": {"settings": "Day 15, NCI-H526 xenograft, female nu/nu mice, OBI-999/OBI-888 10 mg/kg IV, MMAE 0.191 mg/kg IP, once weekly x 4"}, "[6]": {"settings": "Day 18, NCI-H526 xenograft, female nu/nu mice, OBI-999/OBI-888 10 mg/kg IV, MMAE 0.191 mg/kg IP, once weekly x 4"}, "[7]": {"settings": "Day 31, NCI-H526 xenograft, female nu/nu mice, OBI-999/OBI-888 10 mg/kg IV, MMAE 0.191 mg/kg IP, once weekly x 4"}, "[8]": {"settings": "Day 39, NCI-H526 xenograft, female nu/nu mice, OBI-999/OBI-888 10 mg/kg IV, MMAE 0.191 mg/kg IP, once weekly x 4"}, "[9]": {"settings": "Gr. 8, 0.191 mg/kg × 4 IP once weekly, Day 57"}, "[10]": {"settings": "Gr. 8, 0.191 mg/kg × 4 IP once weekly, Day 60"}, "[11]": {"settings": "Gr. 8, 0.191 mg/kg × 4 IP once weekly, Day 64"}, "[12]": {"settings": "Gr. 8, 0.191 mg/kg × 4 IP once weekly, Day 67"}, "[13]": {"settings": "Gr. 8, 0.191 mg/kg × 4 IP once weekly, Day 70"}, "[14]": {"settings": "Gr. 8, 0.191 mg/kg × 4 IP once weekly, Day 74"}, "[15]": {"settings": "Gr. 8, 0.191 mg/kg × 4 IP once weekly, Day 78"}, "[16]": {"settings": "Gr. 8, 0.191 mg/kg × 4 IP once weekly, Day 81"}, "[17]": {"settings": "Gr. 8, 0.191 mg/kg × 4 IP once weekly, Day 85"}}, "note": "Where “and” joins values, the source holds several entries; their conditions need not be identical. Identical values can stand only once. Square brackets hold non-standard residues; d marks the D form. Peptide text beside a SMILES is read from it. * marks the point of attachment. Dolaproine = CO[C@@H]([C@@H]1CCCN1)[C@@H](C)C(=O)O; Dil = CC[C@H](C)[C@H](NC)[C@@H](CC(=O)O)OC; X1 = C[C@@H](N*)[C@@H](O)c1ccccc1; NMeV = CN[C@H](C(=O)O)C(C)C", "data": [{"compound": "CC[C@H](C)[C@@H]([C@@H](CC(=O)N1CCC[C@H]1[C@H](OC)[C@@H](C)C(=O)N[C@H](C)[C@@H](O)c1ccccc1)OC)N(C)C(=O)[C@@H](NC(=O)[C@@H](NC)C(C)C)C(C)C", "note": "[MMAE, monomethyl auristatin E] (H-[NMeV]V[Dil][Dolaproine]-X1)", "values": [{"measurement": "Body Weight (g), Mean", "setting": "[1]; Day 0", "result": 24.2, "unit": "g"}, {"measurement": "Body Weight", "setting": "[1]; Day 0", "result": "25.4 g and 24.2 g and 23.3 g and 24.0 g and 22.7 g"}, {"measurement": "Body Weight (g), Mean", "setting": "[1]; Day 3", "result": 22.1, "unit": "g"}, {"measurement": "Body Weight", "setting": "[1]; Day 3", "result": "21.8 g and 22.4 g and 21.5 g and 21.6 g (2×) and 24.0 g and 20.7 g and 23.1 g"}, {"measurement": "Body Weight (g), Mean", "setting": "[1]; Day 4", "result": 21.9, "unit": "g"}, {"measurement": "Body Weight", "setting": "[1]; Day 4", "result": "21.0 g and 21.3 g and 20.5 g and 22.0 g and 19.6 g and 22.1 g"}, {"measurement": "Body Weight (g), Mean", "setting": "[1]; Day 7", "result": 23.6, "unit": "g"}, {"measurement": "Body Weight", "setting": "[1]; Day 7", "result": "18.8 g and 25.1 g and 27.0 g and 21.7 g and 23.8 g"}, {"measurement": "Body Weight", "setting": "[1]; Day 9", "result": 22.2, "unit": "g"}, {"measurement": "Body Weight", "setting": "[1]; Day 10", "result": 26.0, "unit": "g"}, {"measurement": "Body Weight", "setting": "[1]; Day 14", "result": "24.4 g and 26.0 g"}, {"measurement": "Body Weight", "setting": "[1]; Day 17", "result": "23.9 g and 26.0 g and 23.6 g"}, {"measurement": "Body Weight", "setting": "[1]; Day 21", "result": 23.8, "unit": "g"}, {"measurement": "Body Weight (g), Mean", "setting": "[1]; Day 28", "result": 25.4, "unit": "g"}, {"measurement": "Body Weight", "setting": "[1]; Day 31", "result": "25.0 g and 25.4 g"}, {"measurement": "Body Weight (g), Mean", "setting": "[1]; Day 35", "result": 26.0, "unit": "g"}, {"measurement": "Body Weight", "setting": "[1]; Day 35", "result": 27.2, "unit": "g"}, {"measurement": "Body Weight", "setting": "[1]; Day 37", "result": "26.7 g and 24.0 g"}, {"measurement": "Animal status (Died / Euthanized)", "setting": "[1]; individual animal, OBI-888 10 mg/kg IV", "result": "Died and Euthanized"}, {"measurement": "Body Weight (g), Mean", "setting": "[2]; [3]", "result": 23.9, "unit": "g"}, {"measurement": "Body Weight (g), individual animal No. 1-8", "setting": "[2]; [3]", "result": "24 g (3×) and 25 g and 26 g and 23 g (2×) and 22 g"}, {"measurement": "Body Weight (g), Mean", "setting": "[2]; [4]", "result": 23.6, "unit": "g"}, {"measurement": "Body Weight (g), individual animal No. 1-8", "setting": "[2]; [4]", "result": "22 g and 25 g and 27 g and 21 g and 23 g (2×) and 24 g (2×)"}, {"measurement": "Body Weight (g), individual animal No. 1-8", "setting": "[2]; Day 8, NCI-H526 xenograft, female nu/nu mice, OBI-999/OBI-888 10 mg/kg IV, MMAE 0.191 mg/kg IP, once weekly x 4", "result": "24 g (2×) and 26 g and 28 g and 21 g and 25 g (2×) and 23 g"}, {"measurement": "Body Weight (g), individual animal No. 1-8", "setting": "[2]; Day 11, NCI-H526 xenograft, female nu/nu mice, OBI-999/OBI-888 10 mg/kg IV, MMAE 0.191 mg/kg IP, once weekly x 4", "result": "24 g (3×) and 28 g (2×) and 23 g (2×) and 25 g"}, {"measurement": "Body Weight (g), Mean", "setting": "[2]; [5]", "result": 25.4, "unit": "g"}, {"measurement": "Body Weight (g), individual animal No. 1-8", "setting": "[2]; [5]", "result": "25 g (2×) and 28 g (2×) and 24 g (2×) and 23 g and 26 g"}, {"measurement": "Body Weight (g), Mean", "setting": "[2]; [6]", "result": 25.4, "unit": "g"}, {"measurement": "Body Weight (g), individual animal No. 1-8", "setting": "[2]; [6]", "result": "25 g (3×) and 28 g (2×) and 24 g (3×)"}, {"measurement": "Body Weight (g), individual animal No. 1-8", "setting": "[2]; Day 22, NCI-H526 xenograft, female nu/nu mice, OBI-999/OBI-888 10 mg/kg IV, MMAE 0.191 mg/kg IP, once weekly x 4", "result": "24 g (2×) and 28 g (2×) and 25 g (4×)"}, {"measurement": "Body Weight (g), individual animal No. 1-8", "setting": "[2]; Day 25, NCI-H526 xenograft, female nu/nu mice, OBI-999/OBI-888 10 mg/kg IV, MMAE 0.191 mg/kg IP, once weekly x 4", "result": "26 g (3×) and 30 g and 29 g and 25 g (3×)"}, {"measurement": "Body Weight (g), individual animal No. 1-8", "setting": "[2]; Day 29, NCI-H526 xenograft, female nu/nu mice, OBI-999/OBI-888 10 mg/kg IV, MMAE 0.191 mg/kg IP, once weekly x 4", "result": "25 g and 32 g and 31 g and 26 g (2×) and 27 g (3×)"}, {"measurement": "Body Weight (g), Mean", "setting": "[2]; [7]", "result": 27.8, "unit": "g"}, {"measurement": "Body Weight (g), individual animal No. 1-8", "setting": "[2]; [7]", "result": "25 g and 32 g (2×) and 26 g (2×) and 27 g (3×)"}, {"measurement": "Body Weight (g), individual animal No. 1-8", "setting": "[2]; Day 36, NCI-H526 xenograft, female nu/nu mice, OBI-999/OBI-888 10 mg/kg IV, MMAE 0.191 mg/kg IP, once weekly x 4", "result": "26 g (2×) and 33 g (2×) and 28 g and 27 g and 29 g (2×)"}, {"measurement": "Body Weight (g), Mean", "setting": "[2]; [8]", "result": 30.3, "unit": "g"}, {"measurement": "Body Weight (g), individual animal No. 1-8", "setting": "[2]; [8]", "result": "27 g (3×) and 38 g and 34 g and 30 g (2×) and 29 g"}, {"measurement": "Body Weight", "setting": "[2]; [9]", "result": "27 g (4×) and 24 g and 26 g"}, {"measurement": "Body Weight (g)", "setting": "[2]; [9]", "result": "died"}, {"measurement": "Body Weight", "setting": "[2]; [10]", "result": "27 g (2×) and 25 g and 28 g (2×) and 26 g"}, {"measurement": "Body Weight (g)", "setting": "[2]; [10]", "result": "died"}, {"measurement": "Body Weight (g), Mean", "setting": "[2]; [11]", "result": 26.7, "unit": "g"}, {"measurement": "Body Weight", "setting": "[2]; [11]", "result": "27 g (4×) and 24 g and 28 g"}, {"measurement": "Body Weight (g)", "setting": "[2]; [11]", "result": "died"}, {"measurement": "Body Weight", "setting": "[2]; [12]", "result": "27 g (2×) and 25 g and 28 g (3×)"}, {"measurement": "Body Weight (g)", "setting": "[2]; [12]", "result": "died"}, {"measurement": "Body Weight", "setting": "[2]; [13]", "result": "26 g (2×) and 25 g and 27 g (3×)"}, {"measurement": "Body Weight (g)", "setting": "[2]; [13]", "result": "died"}, {"measurement": "Body Weight", "setting": "[2]; [14]", "result": "27 g and 24 g (2×) and 28 g (3×)"}, {"measurement": "Body Weight (g)", "setting": "[2]; [14]", "result": "died"}, {"measurement": "Body Weight", "setting": "[2]; [15]", "result": "28 g (4×) and 25 g (2×)"}, {"measurement": "Body Weight (g)", "setting": "[2]; [15]", "result": "died"}, {"measurement": "Body Weight", "setting": "[2]; [16]", "result": "28 g (3×) and 25 g and 27 g and 24 g"}, {"measurement": "Body Weight (g)", "setting": "[2]; [16]", "result": "died"}, {"measurement": "Body Weight", "setting": "[2]; [17]", "result": "27 g and 25 g and 28 g (2×) and 29 g and 23 g"}, {"measurement": "Body Weight (g)", "setting": "[2]; [17]", "result": "died"}, {"measurement": "Body Weight (g), Mean", "setting": "[2]; Gr. 8, 0.191 mg/kg × 4 IP once weekly, Day 100", "result": 27.9, "unit": "g"}]}]}
